Common to all, as to format: in vivo
Experiment [1] concerns common lambsquarters (Ch). In words: Test Example 3: herbicidal effects by upland field foliage treatment. More on the design: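 grade of growth control; 5 = at least 90%; 4 = 70 to 90%; 3 = 50 to 70%; 2 = 30 to 50%; 1 = 10 to 30%; 0 = under 10%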. Summed up:
(§1)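 Readout: visual herbicidal rating per defined standards, 14th day after treatment. Plants sown in sand (pot area 120 cm^2), soil-covered, greenhouse-cultured for 2 weeks prior to foliage application, then greenhouse-grown until scoring.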

For experiment [2], the system named is pale smartweed (Po). Described as above. More on the design: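 grade of growth control; 5 = at least 90%; 4 = 70 to 90%; 3 = 50 to 70%; 2 = 30 to 50%; 1 = 10 to 30%; 0 = under 10%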. Put shortly: as §1
Experiment [3] deals with Diaitaria ciliaris (Di). The description is as above. More on the design: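 grade of growth control; 5 = at least 90%; 4 = 70 to 90%; 3 = 50 to 70%; 2 = 30 to 50%; 1 = 10 to 30%; 0 = under 10%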. Put shortly:
as §1

The subject of experiment [4] is barnyardgrass (Ec). Described as above. More on the design: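 grade of growth control; 5 = at least 90%; 4 = 70 to 90%; 3 = 50 to 70%; 2 = 30 to 50%; 1 = 10 to 30%; 0 = under 10%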. Put shortly: as §1
Experiment [5] has as its system rice flatsedge (Ci). Described as above. More on the design: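 grade of growth control; 5 = at least 90%; 4 = 70 to 90%; 3 = 50 to 70%; 2 = 30 to 50%; 1 = 10 to 30%; 0 = under 10%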. Put shortly:
as §1

For experiment [6], the system named is slender amaranth (Am). The description is as above. More on the design: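 grade of growth control; 5 = at least 90%; 4 = 70 to 90%; 3 = 50 to 70%; 2 = 30 to 50%; 1 = 10 to 30%; 0 = under 10%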. Put shortly:
as §1

The test system of experiment [7] is common lambsquarters (Ch). In words: Test Example 2: herbicidal effects by upland field soil treatment.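 Note: grade of growth control; 5 = at least 90%; 4 = 70 to 90%; 3 = 50 to 70%; 2 = 30 to 50%; 1 = 10 to 30%; 0 = under 10%.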 The conditions noted are these: 100 g of the active ingredient per 10 ares. The text has this: (§2) (Test on Herbicidal Effects by Upland Field Soil Treatment)
The test system of experiment [8] is Digitaria ciliaris (Di). The experiment is described as above. The settings on record: 100 g of the active ingredient per 10 ares.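 Note: grade of growth control; 5 = at least 90%; 4 = 70 to 90%; 3 = 50 to 70%; 2 = 30 to 50%; 1 = 10 to 30%; 0 = under 10%.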
From the text: as §2

For experiment [9], the system named is pale smartweed (Po). Described as above. The conditions noted are these: 100 g of the active ingredient per 10 ares.
From the text: as §2

Experiment [10] relates to barnyardgrass (Ec). The description is as above. The settings on record: 100 g of the active ingredient per 10 ares.
From the text: as §2

Experiment [11] relates to rice flatsedge (Ci). The experiment is described as above. The settings on record: 100 g of the active ingredient per 10 ares.
From the text: as §2

The test system of experiment [12] is slender amaranth (Am). The experiment is described as above. The settings on record: 100 g of the active ingredient per 10 ares.
From the text: as §2

Experiment [13] concerns barnyardgrass (Ec). The experiment is described as follows: Test Example 1: herbicidal effects by paddy field soil treatment.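 Note: grade of growth control; 5 = at least 90%; 4 = 70 to 90%; 3 = 50 to 70%; 2 = 30 to 50%; 1 = 10 to 30%; 0 = under 10%.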 The conditions noted are these: 100 g of the active ingredient per 10 ares, 21st day after the application, index 0-5 of Table 47. Summed up:
(§3)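 Scoring of herbicidal effect came 21 days after application of 100 g active ingredient per 10 ares to flooded (3 cm) paddy-soil pots sown with barnyardgrass, monochoria and bulrush, kept in a greenhouse.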

For experiment [14], the system named is monochoria (Mo). The experiment is described as above. The conditions noted are these: 100 g of the active ingredient per 10 ares, 21st day after the application, index 0-5 of Table 47. Summed up:
as §3

Experiment [15] concerns bulrush (Sc). Described as above. The settings on record: 100 g of the active ingredient per 10 ares, 21st day after the application, index 0-5 of Table 47. Summed up: as §3
The mark [16] stands for this setting: 100 g active ingredient per 10 ares, evaluated 14th day after treatment.
Setting [17] is: evaluated on the 21st day after application.
The mark [18] stands for this setting: 100 g of the active ingredient per 10 ares, evaluated on the 14th day after treatment.
The mark [19] stands for this setting: 21st day after the application, index 0-5 of Table 47.

Molecules are shown by their SMILES.
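Throughout, for Herbicidal effects Mo: grade of growth control; 5 = at least 90%; 4 = 70 to 90%; 3 = 50 to 70%; 2 = 30 to 50%; 1 = 10 to 30%; 0 = under 10%.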

Consider `Cc1cc2c(-c3ccc(C(F)(F)F)n(C)c3=O)ccc(Cl)c2o1` [Compound 4-24], for which the “Herbicidal effects Ch” value in [1] (setting [16]) and in experiment [7] (setting [17]) was 5 in each case. Besides, the “Herbicidal effects Po” value in [2] (setting [16]) and in [9] (setting [17]) was 5 in each case. The “Herbicidal effects Di” value in experiment [3] (setting [16]) and in [8] (setting [17]) was 5 each time. Also, the “Herbicidal effects Ec” value was determined as 4 in [4] (setting [16]), 4 in [10] (setting [17]) and 5 in experiment [13]. Further, the “Herbicidal effects Ci” value in experiment [5] (setting [16]) and in [11] (setting [17]) was 5 each time. Besides, the “Herbicidal effects Am” value in experiment [6] (setting [16]) and in experiment [12] (setting [17]) was 5 in each case. Besides, in experiment [14], the “Herbicidal effects Mo” value came to 5. The “Herbicidal effects Sc” value in experiment [15] worked out at 5.
Take `Cn1c(C(F)(F)F)ccc(-c2c(Cl)cc(Cl)c3oc(C(Br)Br)cc23)c1=O` [Compound 4-29]: the “Herbicidal effects Ch” value in [1] (setting [16]) and in experiment [7] (setting [17]) was 5 in each case. The “Herbicidal effects Po” value in [2] (setting [16]) and in experiment [9] (setting [17]) was 5 each time. In addition, the “Herbicidal effects Di” value in [3] (setting [16]) and in [8] (setting [17]) was 5 each time. For the same compound, the “Herbicidal effects Ec” value in [4] (setting [16]), in experiment [10] (setting [17]) and in experiment [13] was 5 each time. Further, the “Herbicidal effects Ci” value in experiment [5] (setting [16]) and in experiment [11] (setting [17]) was 5 throughout. Moreover, the “Herbicidal effects Am” value in experiment [6] (setting [16]) and in experiment [12] (setting [17]) was 5 throughout. Besides, the “Herbicidal effects Mo” value in experiment [14] stood at 5. In addition, the “Herbicidal effects Sc” value in experiment [15] is 5.
For the compound `CCOCc1cc2c(-c3ccc(C(F)(F)F)n(C)c3=O)c(F)cc(Cl)c2o1` [Compound 4-31], the “Herbicidal effects Ch” value in experiment [1] (setting [16]) and in experiment [7] (setting [17]) was 5 in each case. The “Herbicidal effects Po” value in experiment [2] (setting [16]) and in experiment [9] (setting [17]) was 5 each time. In addition, the “Herbicidal effects Di” value in experiment [3] (setting [16]) and in experiment [8] (setting [17]) was 5 in each case. For the same compound, the “Herbicidal effects Ec” value in experiment [4] (setting [16]), in [10] (setting [17]) and in experiment [13] was 5 in each case. Besides, the “Herbicidal effects Ci” value in experiment [5] (setting [16]) and in experiment [11] (setting [17]) was 5 each time. In addition, the “Herbicidal effects Am” value in [6] (setting [16]) and in experiment [12] (setting [17]) was 5 each time. Further, in experiment [14], the “Herbicidal effects Mo” value worked out at 5. The “Herbicidal effects Sc” value in experiment [15] is reported as 5.
As for `C=CCOc1cc(-c2cn(C)c(C(F)(F)F)cc2=O)c(F)cc1Cl` [Compound 6-8], the “Herbicidal effects Ch” value in [1] (setting [16]) and in experiment [7] (setting [17]) was 5 throughout. Further, the “Herbicidal effects Po” value in experiment [2] (setting [16]) and in experiment [9] (setting [17]) was 5 in each case. In addition, the “Herbicidal effects Di” value in [3] (setting [16]) and in [8] (setting [17]) was 5 throughout. The “Herbicidal effects Ec” value in experiment [4] (setting [16]), in experiment [10] (setting [17]) and in experiment [13] was 5 throughout. Further, the “Herbicidal effects Ci” value in experiment [5] (setting [16]) and in experiment [11] (setting [17]) was 5 in each case. The “Herbicidal effects Am” value in experiment [6] (setting [16]) and in experiment [12] (setting [17]) was 5 each time. The “Herbicidal effects Mo” value in [14] is listed as 5. Moreover, the “Herbicidal effects Sc” value in [15] turned out to be 5.
For `Cc1cc(-c2ccc(Cl)cc2Cl)c(=O)n(C)c1C(F)(F)F` [Compound No. 1-11], the “Herbicidal effects Ch” value in experiment [1] (setting [18]) and in [7] (setting [19]) was 5 in each case. For the same compound, the “Herbicidal effects Po” value in [2] (setting [18]) and in experiment [9] (setting [19]) was 5 each time. Besides, the “Herbicidal effects Di” value in [3] (setting [18]) and in experiment [8] (setting [19]) was 5 throughout. Also, the “Herbicidal effects Ec” value in [4] (setting [18]), in [10] (setting [19]) and in [13] was 5 each time. The “Herbicidal effects Ci” value in [5] (setting [18]) and in experiment [11] (setting [19]) was 5 in each case. In addition, the “Herbicidal effects Am” value in [6] (setting [18]) and in experiment [12] (setting [19]) was 5 each time. For the same compound, the “Herbicidal effects Mo” value in experiment [14] worked out at 5. Moreover, in experiment [15], the “Herbicidal effects Sc” value is reported as 5.
On to `Cn1c(C(F)(F)F)ccc(-c2cc(C=O)c(Cl)cc2F)c1=O` [Compound No. 1-81, 5-[1--methyl-6-trifluoromethyl-2(1H)-pyridon-3-yl]-2-chloro-4-fluorobenzaldehyde], for which the “Herbicidal effects Ch” value in experiment [1] (setting [18]) and in experiment [7] (setting [19]) was 5 throughout. The “Herbicidal effects Po” value in experiment [2] (setting [18]) and in [9] (setting [19]) was 5 each time. For the same compound, the “Herbicidal effects Di” value in [3] (setting [18]) and in [8] (setting [19]) was 5 throughout. Further, the “Herbicidal effects Ec” value in experiment [4] (setting [18]), in experiment [10] (setting [19]) and in [13] was 5 throughout. Also, the “Herbicidal effects Ci” value in [5] (setting [18]) and in experiment [11] (setting [19]) was 5 each time. Further, the “Herbicidal effects Am” value in experiment [6] (setting [18]) and in [12] (setting [19]) was 5 throughout. In experiment [14], the “Herbicidal effects Mo” value is reported as 5. Moreover, the “Herbicidal effects Sc” value in experiment [15] is 5.
As to `Cn1c(C(F)(F)F)ccc(-c2cc(C(=O)O)c(Cl)cc2F)c1=O` [Compound No. 1-141, 5-(1-methyl-6-trifluoromethyl-2(1H)-pyridon-3-yl)-2-chloro-4-fluorobenzoic acid], the “Herbicidal effects Ch” value in [1] (setting [18]) and in experiment [7] (setting [19]) was 5 in each case. The “Herbicidal effects Po” value in experiment [2] (setting [18]) and in experiment [9] (setting [19]) was 5 throughout. The “Herbicidal effects Di” value in experiment [3] (setting [18]) and in experiment [8] (setting [19]) was 5 in each case. Besides, the “Herbicidal effects Ec” value in experiment [4] (setting [18]) was 5; in [10] (setting [19]), 4; in [13], 5. For the same compound, the “Herbicidal effects Ci” value in experiment [5] (setting [18]) and in experiment [11] (setting [19]) was 5 each time. For the same compound, the “Herbicidal effects Am” value in experiment [6] (setting [18]) and in experiment [12] (setting [19]) was 5 each time. In addition, the “Herbicidal effects Mo” value in experiment [14] is recorded as 5. Also, the “Herbicidal effects Sc” value in experiment [15] came out at 5.

The values are drawn from patent US6472348B1, “Pyridone derivatives and herbicides” (Kumiai Chemical Industry Co., Ltd., priority 1996, dated 2002).
